Source: patent US20220334127A1, “IN VITRO METHOD FOR OBTAINING CLINICAL DATA IN PATIENTS SUFFERING FROM AN INFLAMMATORY DISEASE” (FUNDACIÓN PARA LA FORMACIÓN E INVESTIGACIÓN SANITARIAS DE …, priority 2019, published 2022)

Key:
P2X7 receptor [1] = test: Mitochondrial membrane depolarization (JC-10) after P2X7 receptor stimulation with ATP in monocytes and macrophages; type: cell-based, mouse; conditions: ATP 3 mM
Text: FIG. 5. P2X7 receptor induces mitochondrial membrane depolarization. (a) Mitochondrial membrane potential from blood monocytes stained with JC-10 in a control healthy donor (left), in a septic patient at day 1 (middle), and from healthy controls, abdominal surgery and septic patients at day 1 or 120 (right); PE^− cells represent the monocytes with mitochondrial depolarization. (b) Correlation between the percentage of monocytes with mitochondrial membrane depolarization and the quantification of P2X7 receptor MFI in monocytes from the septic patients; IC: immunocompromised septic patients. (c) Kinetics of mitochondrial depolarization after ATP (3 mM) stimulation of LPS-primed BMDMs incubated or not with the P2X7 receptor antagonist A438079 (10 μM). (d) Percentage of human monocytes from healthy donors with mitochondrial membrane depolarization after ATP (3 mM, 30 min) stimulation and incubated or not with the P2X7 receptor antagonist AZ11645373 (10 μM). […]
Mitochondrial membrane potential was measured using the JC-10 dye (Abcam) in BMDMs with a Sinergy Mx plate reader (BioTek) or by flow cytometry using the BD FACS Celesta flow cytometer (BD Biosciences), or in human monocytes (CD14^+ labelled with anti-CD14 APC-H7, clone MφP9, BD Biosciences) using FACS Canto (BD Biosciences), following the indications of manufacturer.

HIF-1α = HIF-1α staining in human monocytes by flow cytometry; type: cell-based; conditions: ATP 1 mM 30 min, washed, cultured 2 h (FIG. 7e)
Experimental: (e) Representative histogram plot of HIF-1α staining (left) or quantification of HIF-1α mean intensity fluorescence increase (ΔMFI, right) in monocytes isolated from healthy donor blood samples and treated or not with ATP (1 mM, 30 min) in the presence or absence of AZ11645373 (10 μM) or PDTC (10 μM), and then washed and cultured for 2 h; non-stained monocytes (light grey, left).
Human peripheral blood mononuclear cells (PBMCs) were isolated from blood within one hour after extraction using Ficoll histopaque 1077 (Sigma-Aldrich). […] Cells were treated with ATP (Sigma-Aldrich), antimycin A (Sigma-Aldrich) or FCCP (Sigma-Aldrich) in the presence or absence of PDTC (Sigma-Aldrich) or echinomycin (Sigma-Aldrich) in E-total buffer (147 mM NaCl, 10 mM HEPES, 13 mM glucose, 2 mM CaCl2), 1 mM MgCl2, and 2 mM KCl) and then washed and stimulated with E. coli LPS O55:B5 in their respective complete media. […] After LPS treatment, cells were incubated with P2X7 modulating nanobodies, the specific P2X7 receptor antagonist A438079 or AZ11645373 (Tocris), and then subsequently stimulated with ATP or nigericin (Sigma-Aldrich) in E-total buffer. Times and concentrations for the reagents used are specified in the figure legends.
HIF-1α expression was detected in CD14^+ monocytes using Alexa Fluor-647 mouse anti-human HIF-1α (BD Biosciences, Clone 54) at 1:1000 dilution.

Cell death (LDH assay) = type: cell-based
Experimental: Presence of LDH in cell-free supernatants was measured using the Cytotoxicity Detection kit (Roche) following the manufacturer's instructions.

P2X7 receptor [2] = test: Electron microscopy of mitochondria after ATP; type: cell-based

Structure (SMILES): Nc1ncnc2c1ncn2[C@@H]1O[C@H](COP(=O)(O)OP(=O)(O)OP(=O)(O)O)[C@@H](O)[C@H]1O [ATP, adenosine triphosphate]
- mitochondrial membrane depolarization by the agent itself (P2X7 receptor [1]): induced
- HIF-1α expression by the agent itself (HIF-1α): increased
- cell death (Cell death (LDH assay)): did not induce cell death
- damage to the mitochondria (electron microscopy) (P2X7 receptor [2]): no damage to the mitochondria
- mitochondrial swelling (electron microscopy) (P2X7 receptor [2]): a swelling of the mitochondria
